≈ marks a conversion by molar mass, not a printed value. Entries after “also recorded” stand apart in the source; their conditions may differ. Read-outs that look alike come from different tables or passages of the source. Where only a bound is given, the exact number is not on record here.

The inhibition is how much of the control response was suppressed. By IC50 is commonly meant the midpoint of a concentration-inhibition curve. A word on the MIC50: it is the lowest concentration that inhibits either 50% of growth or 50% of the strains tested, depending on the study. A word on the Ki: it is a dissociation constant, usually derived from enzyme kinetics or from competition with a known ligand. Higher therefore signals lower affinity.

Series [1] addresses T1, ColG-CU (Hathewaya histolytica, UniProt Q9X721). Put plainly: biochemical. In kind it is biochemical, C. histolyticum. The note with it: for inhibition at 100 µM: read-out: Percent inhibition of ColG-CU.
The target of another series is T2, MMP-2 (Homo sapiens, UniProt P08253).
T2 construct: catalytic domains of three human MMPs; purchased Sigma-Aldrich
Put plainly: MMP inhibition assay, MMP-2. In kind it is biochemical. The method, then:
(§1) To assess the selectivity of the compounds over human MMPs and on other bacterial collagenases, selected compounds were tested against ColG-CU and ColH-PD from C. histolyticum and ColA-CU from B. cereus strain ATCC14579. In addition, the compounds were tested on catalytic domains of three human MMPs, which are characterized by different depths of the S1′ binding pocket (MMP-1 (shallow), −2 (intermediate), and −3 (deep)). They were also tested against other important human off-targets, which are involved in gene expression and the processing of TNF-α; these include HDAC-3, -8, TACE (ADAM-17),[33],[34] and COX-1.
(§2) The MMP inhibition assay (Sigma-Aldrich, Saint Louise, MO) was performed as previously reported and in accordance with the manufacturer’s instructions. The fluorescence signals were measured in a CLARIOstar plate reader (BMG LABTECH, Ortenberg, Germany) at a concentration of 100 μM.

A further series has as its target TACE (ADAM-17) (Homo sapiens, UniProt P78536). Put plainly: Human off-target inhibition, TACE. In kind it is biochemical. The method, then:
as §1

Series [2] concerns the target T3, ColH-PD (Hathewaya histolytica, UniProt Q46085). Put plainly: biochemical. In kind it is biochemical, C. histolyticum. The conditions noted are these: for inhibition at 100 µM: read-out: Percent inhibition of ColH-PD.
The target in another series is T4, MMP-1 (Homo sapiens, UniProt P03956).
T4 construct: catalytic domains of three human MMPs; purchased Sigma-Aldrich
T4 sequence (P03956 98-276 limits assumed): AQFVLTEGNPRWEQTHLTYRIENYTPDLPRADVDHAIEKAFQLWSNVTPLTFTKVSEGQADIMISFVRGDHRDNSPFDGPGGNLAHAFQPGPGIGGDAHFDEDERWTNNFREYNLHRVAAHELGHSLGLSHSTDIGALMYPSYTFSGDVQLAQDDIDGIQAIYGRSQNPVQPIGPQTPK
Description: MMP inhibition assay, MMP-1. In kind it is biochemical. The method, then: as §1, §2

In the next series the target is HDAC-3 (Homo sapiens, UniProt O15379). Put plainly: Human off-target inhibition, HDAC-3. In kind it is biochemical. The method, then:
as §1

In series [3] the target is T5, ColQ1-CU (Bacillus cereus, UniProt B9J3S4). Put plainly: biochemical. Details: species or system B. cereus strain Q1.
The target of series [4] is T6, ColA-CU (Bacillus cereus, UniProt Q81BJ6). Put plainly: biochemical. In kind it is biochemical, B. cereus strain ATCC14579. The conditions noted are these: for inhibition at 100 µM: read-out: Percent inhibition of ColA-CU.
A further series deals with T7, HDAC-8 (Homo sapiens, UniProt Q9BY41).
T7 sequence (Q9BY41 1-377): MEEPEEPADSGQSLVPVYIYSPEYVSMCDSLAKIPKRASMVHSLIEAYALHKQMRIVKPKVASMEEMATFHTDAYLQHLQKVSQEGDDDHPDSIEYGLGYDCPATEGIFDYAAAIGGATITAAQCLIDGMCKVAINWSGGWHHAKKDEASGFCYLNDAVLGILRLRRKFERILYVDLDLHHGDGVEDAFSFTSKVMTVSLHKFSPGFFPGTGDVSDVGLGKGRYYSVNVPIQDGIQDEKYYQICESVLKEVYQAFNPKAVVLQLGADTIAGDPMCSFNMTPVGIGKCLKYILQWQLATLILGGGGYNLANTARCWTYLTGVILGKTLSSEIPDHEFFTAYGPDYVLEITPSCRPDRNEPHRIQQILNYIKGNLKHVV
Put plainly: Human off-target inhibition, HDAC-8. In kind it is biochemical. The method, then:
as §1

The next series has as its system B. cereus AH187. Description: B. cereus growth inhibition assay. In kind it is cell-based. The conditions noted are these: Bacillus cereus, read-out: MIC50 (µM) AH187.
In series [5] the test system is B. cereus AH187 infection. In kind it is in vivo, Galleria mellonella.
The target of another series is T8, MMP-3 (Homo sapiens, UniProt P08254).
T8 construct: catalytic domains of three human MMPs; purchased Sigma-Aldrich
Put plainly: MMP inhibition assay, MMP-3. In kind it is biochemical. The method, then:
as §1, §2

Series [6] has as its system B. cereus collagenases released in the NHDF infection model. In kind it is cell-based, B. cereus AH187.
Series [7] relates to NHDF cells infected with B. cereus. Description: NHDF infection model, cell morphology/attachment and fibrillar collagen (picrosirius red). In kind it is cell-based, human. The conditions noted are these: B. cereus infection, 5 h.
The next series addresses ColQ1-FL (Bacillus cereus, UniProt B9J3S4). In kind it is biochemical. The conditions noted are these: 12.5–1.5 μM tested, SDS-PAGE.
For series [8], the system named is MDCK II cells infected with B. cereus AH187. In kind it is cell-based, canine.
In series [9] the target is T6, ColA-CU. In kind it is biochemical, B. cereus. The conditions noted are these: rapid dilution.
Series [10] deals with T3, ColH-PD. In kind it is biochemical, C. histolyticum.
A short description of series [11]: in vitro. The note with it: dog, MDCK II cells (Madin–Darby canine kidney II).
Series [12] in a line: in vitro. The note with it: human, HepG2 cells (hepatocellular carcinoma).
Series [13] is described as follows: in vitro. The conditions noted are these: human, NHDF cells (normal human dermal fibroblasts).
Series [14] concerns the target T1, ColG-CU. In kind it is biochemical, C. histolyticum. The note with it: rapid dilution.
Series [15] in a line: in vitro. The conditions noted are these: human, HEK293 cells (embryonal kidney).
For series [16], the target named is T5, ColQ1-CU. In kind it is biochemical, B. cereus. The conditions noted are these: for Reversibility of inhibition, ColQ1-CU: rapid dilution.
A further series has as its target COX-1 (Homo sapiens, UniProt P23219). Description: Human off-target inhibition, COX-1. In kind it is biochemical. The method, then:
as §1

For series [17], the target named is T5, ColQ1-CU. In kind it is binding, B. cereus. The note with it: intact protein HPLC-MS, overnight treatment.
[18] abbreviates: AH187, BHI medium, 37 °C, 48 h, 200–3 μM.

T1 sequence (Q9X721 111-786): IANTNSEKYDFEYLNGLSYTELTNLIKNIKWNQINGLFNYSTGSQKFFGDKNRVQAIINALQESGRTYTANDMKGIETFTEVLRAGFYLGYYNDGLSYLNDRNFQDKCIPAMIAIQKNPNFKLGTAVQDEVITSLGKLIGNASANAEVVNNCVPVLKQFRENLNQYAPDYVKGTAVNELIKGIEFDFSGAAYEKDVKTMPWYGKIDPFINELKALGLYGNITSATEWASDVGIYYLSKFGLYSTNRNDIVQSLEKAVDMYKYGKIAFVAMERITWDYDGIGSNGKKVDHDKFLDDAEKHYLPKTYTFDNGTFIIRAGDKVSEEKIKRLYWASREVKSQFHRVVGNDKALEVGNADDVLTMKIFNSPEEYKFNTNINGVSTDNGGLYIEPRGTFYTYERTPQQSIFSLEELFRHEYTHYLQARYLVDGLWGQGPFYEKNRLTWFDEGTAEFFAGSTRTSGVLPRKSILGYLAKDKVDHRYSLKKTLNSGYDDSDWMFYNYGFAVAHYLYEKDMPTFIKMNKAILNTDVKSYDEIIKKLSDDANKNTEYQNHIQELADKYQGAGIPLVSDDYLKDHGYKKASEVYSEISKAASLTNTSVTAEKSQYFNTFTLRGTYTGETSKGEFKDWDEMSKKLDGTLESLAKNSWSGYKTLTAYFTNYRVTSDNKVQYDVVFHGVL
T3 sequence (Q46085 331-721 limits assumed): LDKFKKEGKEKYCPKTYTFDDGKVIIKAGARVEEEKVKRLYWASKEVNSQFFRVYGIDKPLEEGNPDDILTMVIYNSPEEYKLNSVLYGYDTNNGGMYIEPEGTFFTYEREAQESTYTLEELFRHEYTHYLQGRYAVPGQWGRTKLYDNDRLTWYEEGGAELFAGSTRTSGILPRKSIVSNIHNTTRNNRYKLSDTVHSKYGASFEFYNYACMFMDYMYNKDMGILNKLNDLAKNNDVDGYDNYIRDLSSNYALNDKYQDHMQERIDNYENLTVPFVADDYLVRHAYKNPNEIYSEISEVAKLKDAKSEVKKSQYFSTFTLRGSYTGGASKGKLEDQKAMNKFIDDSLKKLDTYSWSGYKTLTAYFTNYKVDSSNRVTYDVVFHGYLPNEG
T6 sequence (Q81BJ6 93-764): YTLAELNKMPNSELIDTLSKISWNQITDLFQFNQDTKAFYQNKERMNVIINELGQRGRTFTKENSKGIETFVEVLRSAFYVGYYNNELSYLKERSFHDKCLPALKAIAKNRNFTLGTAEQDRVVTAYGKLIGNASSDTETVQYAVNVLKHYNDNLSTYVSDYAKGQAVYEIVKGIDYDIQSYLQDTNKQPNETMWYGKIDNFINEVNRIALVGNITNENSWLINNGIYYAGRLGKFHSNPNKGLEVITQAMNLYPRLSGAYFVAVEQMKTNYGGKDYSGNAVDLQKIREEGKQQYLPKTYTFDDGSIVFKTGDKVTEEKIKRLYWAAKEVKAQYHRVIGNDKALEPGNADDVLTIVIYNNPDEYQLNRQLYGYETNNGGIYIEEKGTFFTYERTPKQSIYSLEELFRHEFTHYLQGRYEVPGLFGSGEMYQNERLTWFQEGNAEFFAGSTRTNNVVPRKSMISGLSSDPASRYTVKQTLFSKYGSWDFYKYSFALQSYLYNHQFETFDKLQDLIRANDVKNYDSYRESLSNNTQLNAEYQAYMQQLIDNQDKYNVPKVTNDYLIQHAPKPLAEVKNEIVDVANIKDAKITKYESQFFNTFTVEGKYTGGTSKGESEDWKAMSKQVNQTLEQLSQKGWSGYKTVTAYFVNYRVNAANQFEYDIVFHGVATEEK
T5 sequence (B9J3S4 94-765 limits assumed): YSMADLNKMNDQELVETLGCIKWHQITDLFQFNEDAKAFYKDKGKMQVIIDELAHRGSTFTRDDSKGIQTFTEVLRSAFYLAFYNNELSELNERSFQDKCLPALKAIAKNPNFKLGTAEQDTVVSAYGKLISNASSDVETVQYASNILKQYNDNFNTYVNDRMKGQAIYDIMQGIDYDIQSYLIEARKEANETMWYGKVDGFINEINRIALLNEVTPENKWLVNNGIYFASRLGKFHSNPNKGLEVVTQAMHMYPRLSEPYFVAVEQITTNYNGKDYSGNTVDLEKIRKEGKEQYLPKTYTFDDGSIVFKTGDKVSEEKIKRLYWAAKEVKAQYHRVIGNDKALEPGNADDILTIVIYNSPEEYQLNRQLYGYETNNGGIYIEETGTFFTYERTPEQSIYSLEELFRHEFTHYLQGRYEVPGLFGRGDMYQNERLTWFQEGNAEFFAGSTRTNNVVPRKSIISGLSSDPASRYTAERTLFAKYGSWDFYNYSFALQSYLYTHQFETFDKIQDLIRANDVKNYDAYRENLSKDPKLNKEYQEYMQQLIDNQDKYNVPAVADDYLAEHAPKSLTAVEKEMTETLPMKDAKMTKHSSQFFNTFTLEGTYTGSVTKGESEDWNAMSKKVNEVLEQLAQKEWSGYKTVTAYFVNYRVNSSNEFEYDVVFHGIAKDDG
T8 sequence (P08254 100-272 limits assumed): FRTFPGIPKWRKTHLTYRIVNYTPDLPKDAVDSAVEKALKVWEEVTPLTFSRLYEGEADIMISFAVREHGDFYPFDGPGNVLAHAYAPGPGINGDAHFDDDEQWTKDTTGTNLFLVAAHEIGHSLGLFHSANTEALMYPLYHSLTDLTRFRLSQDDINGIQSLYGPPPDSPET
Chain of HDAC-3 (O15379 whole entry): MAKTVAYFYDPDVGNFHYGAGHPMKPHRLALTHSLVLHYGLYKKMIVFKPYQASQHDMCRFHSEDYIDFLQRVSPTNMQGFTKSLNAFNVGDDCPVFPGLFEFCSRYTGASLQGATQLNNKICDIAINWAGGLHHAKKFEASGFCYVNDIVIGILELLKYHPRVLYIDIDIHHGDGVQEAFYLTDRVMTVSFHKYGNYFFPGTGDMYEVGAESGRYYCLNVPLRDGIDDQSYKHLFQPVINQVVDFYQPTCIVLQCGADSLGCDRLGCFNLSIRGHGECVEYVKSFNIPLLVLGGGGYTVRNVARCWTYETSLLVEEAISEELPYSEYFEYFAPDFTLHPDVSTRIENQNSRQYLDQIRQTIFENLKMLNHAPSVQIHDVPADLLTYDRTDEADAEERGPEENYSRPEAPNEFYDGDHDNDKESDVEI
Chain of HDAC-3 (Q9Y618 395-489 partner limits assumed): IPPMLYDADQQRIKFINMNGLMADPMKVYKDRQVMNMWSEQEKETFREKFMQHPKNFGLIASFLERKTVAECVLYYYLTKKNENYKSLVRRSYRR
Chain of TACE (ADAM-17) (P78536 215-824): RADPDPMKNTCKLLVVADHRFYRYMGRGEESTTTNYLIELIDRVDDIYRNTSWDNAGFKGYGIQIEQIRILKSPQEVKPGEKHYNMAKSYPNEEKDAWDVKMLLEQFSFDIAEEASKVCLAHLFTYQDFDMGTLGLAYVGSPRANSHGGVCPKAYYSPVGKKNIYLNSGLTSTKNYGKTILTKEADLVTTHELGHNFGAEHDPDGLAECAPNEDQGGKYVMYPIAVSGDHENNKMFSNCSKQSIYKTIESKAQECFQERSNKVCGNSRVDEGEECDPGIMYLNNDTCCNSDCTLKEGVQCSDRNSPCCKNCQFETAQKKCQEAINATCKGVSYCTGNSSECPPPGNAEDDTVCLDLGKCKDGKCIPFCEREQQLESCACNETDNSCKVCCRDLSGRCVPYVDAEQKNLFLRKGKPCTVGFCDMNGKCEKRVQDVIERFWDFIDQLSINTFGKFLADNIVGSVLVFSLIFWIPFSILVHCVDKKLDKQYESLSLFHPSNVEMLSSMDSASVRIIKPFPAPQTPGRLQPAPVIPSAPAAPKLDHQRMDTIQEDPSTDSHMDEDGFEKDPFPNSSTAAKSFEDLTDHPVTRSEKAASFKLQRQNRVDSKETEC
T2 sequence (P08253 110-444 limits assumed): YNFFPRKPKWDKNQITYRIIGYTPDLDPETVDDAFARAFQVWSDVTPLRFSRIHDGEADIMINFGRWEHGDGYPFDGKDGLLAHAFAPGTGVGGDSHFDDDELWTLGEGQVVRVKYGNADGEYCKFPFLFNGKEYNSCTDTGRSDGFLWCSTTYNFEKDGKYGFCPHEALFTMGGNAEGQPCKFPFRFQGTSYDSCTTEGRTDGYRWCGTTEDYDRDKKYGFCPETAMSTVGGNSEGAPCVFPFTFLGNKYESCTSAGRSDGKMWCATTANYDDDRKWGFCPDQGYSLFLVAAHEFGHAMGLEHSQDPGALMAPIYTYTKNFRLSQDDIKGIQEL
Chain of ColQ1-FL (B9J3S4 94-965 limits assumed): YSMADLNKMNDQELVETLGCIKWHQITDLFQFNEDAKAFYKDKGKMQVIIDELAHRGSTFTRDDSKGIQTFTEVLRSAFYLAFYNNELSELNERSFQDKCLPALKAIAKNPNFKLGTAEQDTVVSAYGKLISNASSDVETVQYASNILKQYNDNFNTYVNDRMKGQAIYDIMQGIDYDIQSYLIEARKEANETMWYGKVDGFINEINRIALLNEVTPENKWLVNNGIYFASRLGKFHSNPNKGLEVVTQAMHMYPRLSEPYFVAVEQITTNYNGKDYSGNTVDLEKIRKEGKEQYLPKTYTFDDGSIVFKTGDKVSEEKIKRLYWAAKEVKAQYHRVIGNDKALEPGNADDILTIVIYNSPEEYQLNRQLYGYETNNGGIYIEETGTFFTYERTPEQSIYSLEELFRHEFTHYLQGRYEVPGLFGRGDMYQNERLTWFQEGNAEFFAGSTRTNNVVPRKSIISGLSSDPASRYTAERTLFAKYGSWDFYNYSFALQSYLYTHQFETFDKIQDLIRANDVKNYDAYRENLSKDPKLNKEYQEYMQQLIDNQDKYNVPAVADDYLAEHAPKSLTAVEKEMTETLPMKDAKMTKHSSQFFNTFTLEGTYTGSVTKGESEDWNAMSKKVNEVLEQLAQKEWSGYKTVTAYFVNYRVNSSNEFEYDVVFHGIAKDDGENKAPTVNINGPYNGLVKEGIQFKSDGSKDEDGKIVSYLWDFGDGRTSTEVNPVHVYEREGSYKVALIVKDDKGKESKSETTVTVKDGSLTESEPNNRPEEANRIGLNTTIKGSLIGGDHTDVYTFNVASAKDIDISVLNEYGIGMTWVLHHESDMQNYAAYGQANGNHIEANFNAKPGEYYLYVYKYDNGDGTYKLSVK

For the molecule `NCCCC(O)(P(=O)([O-])O)P(=O)(O)O.[Na+]` [Alendronate sodium, reference compound], the inhibition at 100 µM on ColG-CU [1] was 28 ± 7%; at ColH-PD [2], 25 ± 5%; on ColQ1-CU [3], 76 ± 1%; at ColA-CU [4] it was 18 ± 4%. Also, the half-maximal inhibitory concentration (IC50) against MMP-2, on TACE (ADAM-17), on MMP-1, against HDAC-3, on HDAC-8 and against MMP-3 was above 100 µM throughout. The MIC50 in the series with B. cereus AH187 (AH187, 48 h) turned out to be 200 µM. The “Increase in survival of infected larvae” value in series [5] (in vivo) came out at 40%. The “Survival of infected larvae vs control without inhibitor” value in series [5] (in vivo) is listed as “ameliorated the survival of the larvae in a dose-dependent manner”.

As for `O=P(O)(O)c1nc2ccc(Br)cc2nc1P(=O)(O)O` [Compound 10, (6-Bromoquinoxaline-2,3-diyl)bis(phosphonic acid)], the “Inhibitory effect on gelatinolytic activity of secreted collagenases” value (shortened to “Inhibitory effect”) in [6] is “inhibited the collagenase activity toward gelatin only marginally at 100 μM”. Besides, the half-inhibitory concentration (IC50) on ColQ1-CU [3] was determined as 2.5 ± 0.2 µM. Further, the “Effect on cell morphology and ECM collagen content of infected NHDF cells” value in series [7] was “smaller effect at all concentrations tested (except for 10, which resulted in higher cell viability and attachment at 100 μM)”. The MIC50 in the series with B. cereus AH187 (setting [18]) was 200 µM (≈ 73.8 µg/mL). In addition, the “Protection of Col I chains from cleavage by ColQ1-FL” value at ColQ1-FL was “showed inhibition only at 12.5 μM”. Also, the “TEER of infected MDCK II cells” value in [8] is reported as “failed to sustain the TEER of the infected cells”.

On to `O=P(O)(O)c1nc2ccc(-c3ccc(Cl)cc3)cc2nc1P(=O)(O)O` [Compound 15, (6-(4-Chlorophenyl)quinoxaline-2,3-diyl)bis(phosphonic acid)], for which the inhibition at 100 µM on ColG-CU [1] (100 μM) stood at 70 ± 8%; at ColH-PD [2] (100 μM) it was 97 ± 5%; on ColA-CU [4] (100 μM), 86 ± 8%. Further, the IC50 at MMP-2 was above 100 µM; against TACE (ADAM-17) it was above 100 µM; against MMP-1, above 100 µM; on HDAC-3, above 100 µM; against ColQ1-CU [3], 10.5 µM; in the series “in vitro [11]”, above 200 µM. Besides, the IC50 is above 100 µM in “in vitro [12]”; above 100 µM on HDAC-8; above 200 µM in the series “in vitro [13]”; above 100 µM in “in vitro [15]”; above 100 µM on MMP-3; above 100 µM on COX-1. The “Reversibility of inhibition, ColA-CU” value on ColA-CU [9] was “progress curve typical for slowly dissociating inhibitors”. In addition, on ColH-PD [10], the “Reversibility of inhibition, ColH” value is listed as “reversed compared to ColA”. Besides, the “Inhibitory effect” value in [6] is “clear dose-dependent inhibitory effect on gelatin turnover”. Further, the “Concentration showing dose-dependent effects on NHDF morphology, fibrillar ECM collagen content and LDH release” value in [7] was at least 100 μM. For the same molecule, the MIC50 in the series on B. cereus AH187 (setting [18]) came out at 100 µM (≈ 40.1 µg/mL). The “Reversibility of inhibition, ColG” value at ColG-CU [14] is “rapidly reversible inhibitors”. The “Effect on survival of infected larvae” value in series [5] (25 μM) is “reduced effect”. Moreover, the “Increase in survival of infected larvae” value in [5] (100 μM) was “about 35%”. Moreover, the “Survival of infected larvae vs control without inhibitor” value in series [5] (37 °C, 3 days) is “ameliorated the survival of the larvae in a dose-dependent manner”. The “Residual activity after rapid dilution” value at ColQ1-CU [16] (30 min preincubation at 10-fold IC50, 100-fold dilution) is recorded as “less than 9%”. Further, the “Reversibility of inhibition, ColQ1-CU” value at ColQ1-CU [16] was “irreversible or very slowly dissociating inhibitors”. Moreover, the “Protection of Col I chains from cleavage by ColQ1-FL” value on ColQ1-FL is recorded as “inhibited the collagenase activity at all concentrations tested”. Further, the “TEER of infected MDCK II cells” value in [8] was “preserve the TEER value”.

With `CC(=O)Nc1ccccc1OCc1cn(CCNC(=O)C(Cc2ccccc2)C(=O)NO)nn1` (centres unmarked) [Compound 33, N-[2-[4-[(2-Acetamidophenoxy)methyl]triazol-1-yl]ethyl]-2-benzyl-3-(hydroxyamino)-3-oxo-propanamide], the Ki at ColG-CU [1] worked out at 18.4 ± 0.6 µM; at ColH-PD [2], 1.7 ± 0.2 µM; at ColQ1-CU [3], 0.82 ± 0.07 µM; at ColA-CU [4] it was 4.7 ± 0.3 µM. Moreover, the “Reversibility of inhibition, ColA-CU” value at ColA-CU [9] is given as “rapidly reversible inhibitors”. On ColH-PD [10], the “Reversibility of inhibition, ColH” value was “rapidly reversible inhibitors”. Besides, the “Inhibitory effect” value in series [6] was “no inhibitory effect on the collagenase in the zymography at all tested concentrations; also recorded: no inhibition of the collagenase in the gelatin zymography was detected”. Besides, on ColQ1-CU [3], the IC50 was found to be 1.6 ± 0.1 µM. Besides, in series [7], the “Effect on cell morphology and ECM collagen content of infected NHDF cells” value is “neither able to rescue cell morphology nor able to maintain the collagen content of the ECM”. In addition, at ColG-CU [14], the “Reversibility of inhibition, ColG” value is “rapidly reversible inhibitors”. In addition, on ColQ1-CU [16], the “Reversibility of inhibition, ColQ1-CU” value is reported as “rapidly reversible inhibitors”.

In the case of `CNC(=O)[C@H](Cc1c[nH]c2ccccc12)NC(=O)[C@@H](CC(=O)NO)CC(C)C` [Ilomastat, reference compound], on ColQ1-CU [17], the “Covalent modification of ColQ1-CU” value is given as “No molecular masses displayed a mass shift indicating a covalently bound inhibitor”.
